# US20100041089A1, “IMPROVED METHOD FOR DETECTING CHEMICAL […]” (priority 2006, published 2010)
# Test system: yeast genes (expressed mRNA)
# Experiment: DNA chip measurement of expressed mRNA of yeast genes after culture with a toxic chemical substance
# Format: cell-based, Saccharomyces cerevisiae S288C
# Conditions: for level of expressed mRNA in the presence of chemical substance / level in the absence of chemical substance: cultured two hours with the chemical substance; for The level of expressed mRNA in the presence of chemical substance/The level of expressed mRNA in the absence of chemical substance: cultured two hours with substance
# Description: Yeast (Saccharomyces cerevisiae S288C (a SUC2mal mel gap2 CUP1)) were cultured at 25° C. on YPD medium (yeast extract 1%, polypeptone 2%, glucose 2%). One of toxic chemical substances was added to the cell at logarithmic growth phase, and the cell was further cultured for two hours. Cell was cultured without any chemical substance in the same condition, and was used as a control. Concentrations of the chemical substances were defined to inhibit the growth of the yeast but not lead to death.
# After the completion of cultivation, the culture was centrifuged to collect the cells. To the cells, sodium acetate buffer (50 mM sodium acetate, 10 mM EDTA, 1% SDS) was added, and the mixture was shaken at 65° C. for five minutes, followed by returning to room temperature, and obtaining the supernatant, which procedure was repeated two times. To the supernatant, ½ amount of a solution of phenol/chloroform (1:1) was added, and the mixture was centrifuged to give a supernatant, an equal amount of chloroform was added, and the mixture was centrifuged to give a supernatant. To the supernatant, an equal amount of isopropanol containing 0.3 M sodium acetate was added, and the mixture was allowed to stand at room temperature for 30 minutes, after which the mixture was centrifuged to give sediment of the whole RNAs. Seventy % ethanol was added to the sediment, and the mixture was again centrifuged to give sediment, which was then dried and dissolved in water. mRNA was isolated from the whole RNAs as followings. In view of the fact that a poly A chain is attached to the 3′ terminus of mRNA, a polynucleotide having a poly T structure which was immobilized on the surface of latex beads was used to trap the mRNA, and then the mRNA was washed and eluted with spine column (Oligotex-dT30<Super>mRNA Purification Kit, Takara). Reverse transcription of the mRNA was conducted with a reverse transcriptase (Super Script II Reverse Transcriptase; catalogue No. 18064-014, GibcoBRL) using fluorescence-labeled nucleotides to give cDNAs that were introduced with Cy3-dUTP or Cy5-dUTP during the reverse transcription.
# The labeled cDNAs were dissolved in TE buffer (10 mM Tris-HCl/1 mM EDTA, pH 8.0), and the solution was dropped on the DNA chip containing the whole genes of yeast (DNA Chip Research Inc. Japan) so that the cDNAs were hybridized on the DNA chip at 65° C. for over 12 hours. The fluoresces intensity of the DNA chip was read with a scanner, and the ratio relative to the fluorescence intensity resulting from the absence of chemical substance was estimated as the following, which is shown in Tables 1 to 9.
# In the Tables, “Intensity” indicated in the rightmost column is a value of the level of expressed mRNA of each gene in control cells as divided by the average level of the expressions of the whole genes. A gene of which mRNA level is lower in control, and is higher in cases of addition of chemical substance, is especially useful in the detection of toxic substances.
# Here, when a ratio of an amount of mRNA expressed in the presence of the chemical substance to an amount of mRNA expressed in the absence of the chemical substance is two or more, then it is considered significant.
structure (smiles),measurement,setting,value
"CCCCCCCCCCCCc1ccc(S(=O)(=O)[O-])cc1.[Na+] [(17), Sodium dodecylbenzosulfonate]",level of expressed mRNA in the presence of chemical substance / level in the absence of chemical substance,yeast gene YDR128W,0.9
same,level of expressed mRNA in the presence of chemical substance / level in the absence of chemical substance,yeast gene YDR133C,0.6
same,level of expressed mRNA in the presence of chemical substance / level in the absence of chemical substance,yeast gene YDR250C,0.9
same,level of expressed mRNA in the presence of chemical substance / level in the absence of chemical substance,yeast gene YDR278C,0.7
same,level of expressed mRNA in the presence of chemical substance / level in the absence of chemical substance,yeast gene YDR281C,1.5
same,The level of expressed mRNA in the presence of chemical substance/The level of expressed mRNA in the absence of chemical substance,yeast gene YDR330W,1.5
same,level of expressed mRNA in the presence of chemical substance / level in the absence of chemical substance,yeast gene YDR366C,1.2
same,The level of expressed mRNA in the presence of chemical substance/The level of expressed mRNA in the absence of chemical substance,yeast gene YDR411C,1.5
same,The level of expressed mRNA in the presence of chemical substance/The level of expressed mRNA in the absence of chemical substance,yeast gene YDR511W,1.3
same,The level of expressed mRNA in the presence of chemical substance/The level of expressed mRNA in the absence of chemical substance,yeast gene YDR545W,0.9
same,The level of expressed mRNA in the presence of chemical substance/The level of expressed mRNA in the absence of chemical substance,yeast gene YEL001C,0.7
same,The level of expressed mRNA in the presence of chemical substance/The level of expressed mRNA in the absence of chemical substance,yeast gene YER004W,1.4
same,The level of expressed mRNA in the presence of chemical substance/The level of expressed mRNA in the absence of chemical substance,yeast gene YER035W,2.2
same,The level of expressed mRNA in the presence of chemical substance/The level of expressed mRNA in the absence of chemical substance,yeast gene YER079W,1.0
same,The level of expressed mRNA in the presence of chemical substance/The level of expressed mRNA in the absence of chemical substance,yeast gene YER106W,0.8
same,The level of expressed mRNA in the presence of chemical substance/The level of expressed mRNA in the absence of chemical substance,yeast gene YER158C,1.6
same,The level of expressed mRNA in the presence of chemical substance/The level of expressed mRNA in the absence of chemical substance,yeast gene YER163C,1.2
same,The level of expressed mRNA in the presence of chemical substance/The level of expressed mRNA in the absence of chemical substance,yeast gene YER175C,0.9
same,The level of expressed mRNA in the presence of chemical substance/The level of expressed mRNA in the absence of chemical substance,yeast gene YFL006W,1.0
same,The level of expressed mRNA in the presence of chemical substance/The level of expressed mRNA in the absence of chemical substance,yeast gene YFL010C,1.9
same,The level of expressed mRNA in the presence of chemical substance/The level of expressed mRNA in the absence of chemical substance,yeast gene YFL024C,0.9
same,The level of expressed mRNA in the presence of chemical substance/The level of expressed mRNA in the absence of chemical substance,yeast gene YFL032W,1.7
same,level of expressed mRNA in the presence of chemical substance / level in the absence of chemical substance,yeast gene YFR026C,1.1
same,The level of expressed mRNA in the presence of chemical substance/The level of expressed mRNA in the absence of chemical substance,yeast gene YGL037C,1.3
same,The level of expressed mRNA in the presence of chemical substance/The level of expressed mRNA in the absence of chemical substance,yeast gene YGL047W,1.1
same,The level of expressed mRNA in the presence of chemical substance/The level of expressed mRNA in the absence of chemical substance,yeast gene YGL053W,2.2
same,level of expressed mRNA in the presence of chemical substance / level in the absence of chemical substance,yeast gene YGL088W,0.5
same,The level of expressed mRNA in the presence of chemical substance/The level of expressed mRNA in the absence of chemical substance,yeast gene YGL121C,2.7
same,The level of expressed mRNA in the presence of chemical substance/The level of expressed mRNA in the absence of chemical substance,yeast gene YGL199C,1.2
same,level of expressed mRNA in the presence of chemical substance / level in the absence of chemical substance,yeast gene YGR038W,1.1
same,The level of expressed mRNA in the presence of chemical substance/The level of expressed mRNA in the absence of chemical substance,yeast gene YGR101W,1.0
same,The level of expressed mRNA in the presence of chemical substance/The level of expressed mRNA in the absence of chemical substance,yeast gene YGR110W,0.9
same,The level of expressed mRNA in the presence of chemical substance/The level of expressed mRNA in the absence of chemical substance,yeast gene YGR130C,1.3
same,level of expressed mRNA in the presence of chemical substance / level in the absence of chemical substance,yeast gene YGR139W,1.0
same,The level of expressed mRNA in the presence of chemical substance/The level of expressed mRNA in the absence of chemical substance,yeast gene YGR154C,1.0
same,The level of expressed mRNA in the presence of chemical substance/The level of expressed mRNA in the absence of chemical substance,yeast gene YGR221C,1.3
same,level of expressed mRNA in the presence of chemical substance / level in the absence of chemical substance,yeast gene YGR243W,2.1
same,level of expressed mRNA in the presence of chemical substance / level in the absence of chemical substance,yeast gene YGR293C,0.8
same,level of expressed mRNA in the presence of chemical substance / level in the absence of chemical substance,yeast gene YHL006C,1.1
same,level of expressed mRNA in the presence of chemical substance / level in the absence of chemical substance,yeast gene YHR095W,0.8
same,level of expressed mRNA in the presence of chemical substance / level in the absence of chemical substance,yeast gene YHR105W,1.0
same,The level of expressed mRNA in the presence of chemical substance/The level of expressed mRNA in the absence of chemical substance,yeast gene YHR138C,5.0
same,level of expressed mRNA in the presence of chemical substance / level in the absence of chemical substance,yeast gene YHR181W,0.9
same,The level of expressed mRNA in the presence of chemical substance/The level of expressed mRNA in the absence of chemical substance,yeast gene YHR199C,1.1
same,The level of expressed mRNA in the presence of chemical substance/The level of expressed mRNA in the absence of chemical substance,yeast gene YIL023C,1.2
same,The level of expressed mRNA in the presence of chemical substance/The level of expressed mRNA in the absence of chemical substance,yeast gene YIL041W,0.8
same,The level of expressed mRNA in the presence of chemical substance/The level of expressed mRNA in the absence of chemical substance,yeast gene YIL087C,1.7
same,level of expressed mRNA in the presence of chemical substance / level in the absence of chemical substance,yeast gene YIL127C,0.7
same,level of expressed mRNA in the presence of chemical substance / level in the absence of chemical substance,yeast gene YJL017W,1.0
same,level of expressed mRNA in the presence of chemical substance / level in the absence of chemical substance,yeast gene YJL037W,1.3
same,The level of expressed mRNA in the presence of chemical substance/The level of expressed mRNA in the absence of chemical substance,yeast gene YJL057C,1.4
same,The level of expressed mRNA in the presence of chemical substance/The level of expressed mRNA in the absence of chemical substance,yeast gene YJL066C,1.4
same,The level of expressed mRNA in the presence of chemical substance/The level of expressed mRNA in the absence of chemical substance,yeast gene YJL082W,0.6
